From ChEMBL document CHEMBL4359854, “Repurposing mosloflavone/5,6,7-trimethoxyflavone-resveratrol hybrids: Discovery of novel p38-α MAPK inhibitors as potent interceptors of macrophage-dependent production of proinflammatory mediators” (Eur J Med Chem, 2019)
Values belong to the molecule of their own block, whether it stands above or below them. Active and inactive are the calls of the source. No cut-off for these calls is given here.

Legend:
RAW264.7 [1] = assay: Anti-inflammatory activity in mouse RAW264.7 cells assessed as remaining LPS-induced NO production at 40 uM preincubated for 1 hr followed by LPS addition and measured after 24 hrs by Griess reagent-based assay relative to control; format: functional
[2] = Cytotoxicity against LPS-induced mouse RAW264.7 cells assessed as cell viability at 1 uM incubated for 24 hrs by MTT assay relative to control; format: cell-based; settings: LPS-induced RAW264.7 cells, read-out: Activity
RAW264.7 [3] = assay: Anti-inflammatory activity in mouse RAW264.7 cells assessed as inhibition of LPS-induced NO production at 1 uM preincubated for 1 hr followed by LPS addition and measured after 24 hrs by Griess reagent-based assay relative to control; format: functional
RAW264.7 [4] = assay: Anti-inflammatory activity in mouse RAW264.7 cells assessed as inhibition of LPS-induced PGE2 production at 1 uM preincubated for 1 hr followed by LPS addition and measured after 24 hrs by EIA relative to control; format: functional
RAW264.7 [5] = assay: Anti-inflammatory activity in mouse RAW264.7 cells assessed as inhibition of LPS-induced PGE2 production preincubated for 1 hr followed by LPS addition and measured after 24 hrs by EIA; format: functional, cell-based
RAW264.7 [6] = assay: Anti-inflammatory activity in mouse RAW264.7 cells assessed as inhibition of LPS-induced PGE2 production at 40 nM preincubated for 1 hr followed by LPS addition and measured after 24 hrs by EIA; format: functional, cell-based
RAW264.7 [7] = assay: Anti-inflammatory activity in mouse RAW264.7 cells assessed as inhibition of LPS-induced IL-6 production at 1 uM preincubated for 1 hr followed by LPS addition and measured after 24 hrs by EIA relative to control; format: functional
RAW264.7 [8] = assay: Anti-inflammatory activity in mouse RAW264.7 cells assessed as inhibition of LPS-induced TNFalpha production at 1 uM preincubated for 1 hr followed by LPS addition and measured after 24 hrs by EIA relative to control; format: functional
RAW264.7 [9] = assay: Anti-inflammatory activity in mouse RAW264.7 cells assessed as inhibition of LPS-induced IL-1beta production at 1 uM preincubated for 1 hr followed by LPS addition and measured after 24 hrs by EIA relative to control; format: functional
[10] = biological target: Mitogen-activated protein kinase 14 (Mus musculus) (UniProt P47811); assay: Inhibition of p38alpha MAPK in LPS-stimulated mouse RAW264.7 cells assessed as reduction in MK2 phosphorylation at 5 uM incubated for 120 mins by Western blot analysis; format: cell-based
Sequence of Mitogen-activated protein kinase 14 (Mus musculus) (P47811 whole entry): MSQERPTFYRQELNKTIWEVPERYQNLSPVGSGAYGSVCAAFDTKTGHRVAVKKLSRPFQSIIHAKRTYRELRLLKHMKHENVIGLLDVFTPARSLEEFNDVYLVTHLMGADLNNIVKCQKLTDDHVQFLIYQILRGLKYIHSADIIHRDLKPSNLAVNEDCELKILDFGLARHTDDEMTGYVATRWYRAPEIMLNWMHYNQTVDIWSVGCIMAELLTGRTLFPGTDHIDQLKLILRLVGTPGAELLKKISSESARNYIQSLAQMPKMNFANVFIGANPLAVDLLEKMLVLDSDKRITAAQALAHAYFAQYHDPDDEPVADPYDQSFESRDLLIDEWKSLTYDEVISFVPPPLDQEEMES

RAW264.7 [11] = assay: Anti-inflammatory activity in mouse RAW264.7 cells assessed as inhibition of LPS-induced PGE2 production at 10 nM preincubated for 1 hr followed by LPS addition and measured after 24 hrs by EIA relative to control; format: functional
RAW264.7 [12] = assay: Effect on NO production in mouse RAW264.7 cells assessed as inhibition of NO production at 2 to 5 uM incubated for 24 hrs by Griess reagent-based assay; format: cell-based; settings: raw264.7, 24 h
RAW264.7 [13] = assay: Anti-inflammatory activity in mouse RAW264.7 cells assessed as inhibition of LPS-induced NO production at 0.5 uM preincubated for 1 hr followed by LPS addition and measured after 24 hrs by Griess reagent-based assay; format: functional, cell-based
RAW264.7 [14] = assay: Anti-inflammatory activity in mouse RAW264.7 cells assessed as inhibition of LPS-induced NO production preincubated for 1 hr followed by LPS addition and measured after 24 hrs by Griess reagent-based assay; format: functional, cell-based
RAW264.7 [15] = assay: Anti-inflammatory activity in mouse RAW264.7 cells assessed as inhibition of LPS-induced PGE2 production at 0.2 uM preincubated for 1 hr followed by LPS addition and measured after 24 hrs by EIA; format: functional, cell-based
RAW264.7 [16] = assay: Anti-inflammatory activity in mouse RAW264.7 cells assessed as inhibition of LPS-induced IL-6 production preincubated for 1 hr followed by LPS addition and measured after 24 hrs by EIA; format: functional, cell-based
RAW264.7 [17] = assay: Anti-inflammatory activity in mouse RAW264.7 cells assessed as inhibition of LPS-induced IL-6 production at 1 to 5 uM preincubated for 1 hr followed by LPS addition and measured after 24 hrs by EIA; format: functional, cell-based
[18] = biological target: Mitogen-activated protein kinase 14 (Mus musculus) (UniProt P47811); assay: Inhibition of p38alpha MAPK in LPS-stimulated mouse RAW264.7 cells assessed as reduction in p38alpha MAPK phosphorylation at 4 uM incubated for 60 mins by Western blot analysis; format: cell-based
RAW264.7 [19] = assay: Effect on IL-6 production in mouse RAW264.7 cells assessed as increase in IL-6 production up to 5 uM measured after 1 hr by EIA; format: ADME, cell-based; settings: raw264.7, 1 h
RAW264.7 [20] = assay: Anti-inflammatory activity in mouse RAW264.7 cells assessed as inhibition of LPS-induced TNFalpha production preincubated for 1 hr followed by LPS addition and measured after 24 hrs by EIA; format: functional, cell-based
RAW264.7 [21] = assay: Anti-inflammatory activity in mouse RAW264.7 cells assessed as inhibition of LPS-induced TNFalpha production at 0.5 uM preincubated for 1 hr followed by LPS addition and measured after 24 hrs by EIA; format: functional, cell-based
RAW264.7 [22] = assay: Effect on TNF-alpha production in mouse RAW264.7 cells assessed as increase in TNFalpha production at up to 5 uM measured after 1 hr by EIA; format: ADME, cell-based; settings: raw264.7, 1 h
[23] = biological target: Mitogen-activated protein kinase 14 (Mus musculus) (UniProt P47811); assay: Inhibition of p38alpha MAPK in LPS-stimulated mouse RAW264.7 cells assessed as reduction in p38alpha MAPK phosphorylation incubated for 60 mins by Western blot analysis; format: cell-based
[24] = biological target: Mitogen-activated protein kinase 14 (Mus musculus) (UniProt P47811); assay: Inhibition of p38alpha MAPK in LPS-stimulated mouse RAW264.7 cells assessed as reduction in p38alpha MAPK phosphorylation at 2 uM incubated for 60 mins by Western blot analysis; format: cell-based
[25] = biological target: T1, Mitogen-activated protein kinase 14 (Mus musculus, UniProt P47811); assay: Inhibition of p38alpha MAPK in unstimulated mouse RAW264.7 cells assessed as reduction in p38alpha MAPK phosphorylation at 4 uM incubated for 60 mins by Western blot analysis; format: cell-based; settings: RAW264.7, mouse, 1 h
T1 sequence (P47811 whole entry): as above

[26] = biological target: T1, Mitogen-activated protein kinase 14; assay: Inhibition of p38alpha MAPK in unstimulated mouse RAW264.7 cells assessed as reduction in p38alpha MAPK phosphorylation at 2 uM incubated for 60 mins by Western blot analysis; format: cell-based; settings: raw264.7, 1 h

SMILES: CC(=N)NCCCC[C@H](N)C(=O)O [L-NIL]
- Activity (RAW264.7 [1]): 29 - 35%

- IC50 (RAW264.7 [5]): 310 nM
- inhibition [10]: Active
SMILES: COc1ccccc1C(=O)Nc1cccc(-c2cc(=O)c3c(O)c(OC)c(OC)cc3o2)c1
- viability at 24 h, 1 µM [2]: 90.9%
- inhibition at 1 µM (RAW264.7 [3]): 2.62%
- inhibition at 1 µM (RAW264.7 [4]): 82.8%
- inhibition (RAW264.7 [5]): Dose-dependent effect
- inhibition (RAW264.7 [6]): Active
- inhibition at 1 µM (RAW264.7 [7]): -9.4%
- inhibition at 1 µM (RAW264.7 [8]): -9.74%
- inhibition at 1 µM (RAW264.7 [9]): 41.3%

SMILES: CS(=O)(=O)Nc1ccc([N+](=O)[O-])cc1OC1CCCCC1 [NS-398]
- inhibition at 0.01 µM (RAW264.7 [11]): 58%

- IC50 (RAW264.7 [14]): 2110 nM
- IC50 (RAW264.7 [5]): 980 nM
- inhibition [18]: 100%
- inhibition [23]: Dose-dependent effect
- inhibition [24]: Active
- inhibition at 4 µM [25]: 100%
- inhibition (INH) [26]: Active
SMILES: COc1cc(NC(=O)c2cccc(-c3cc(=O)c4c(O)c(OC)c(OC)cc4o3)c2)cc(OC)c1OC
- Activity (RAW264.7 [12]): Non-Toxic
- inhibition (RAW264.7 [13]): Active
- viability at 24 h, 1 µM [2]: 144%
- inhibition at 1 µM (RAW264.7 [3]): 44.8%
- inhibition (RAW264.7 [14]): Dose-dependent effect
- inhibition at 1 µM (RAW264.7 [4]): 35.7%
- inhibition (RAW264.7 [5]): Dose-dependent effect
- inhibition (RAW264.7 [15]): inactive
- inhibition at 1 µM (RAW264.7 [7]): 53.5%
- inhibition (RAW264.7 [16]): Dose-dependent effect
- inhibition (RAW264.7 [17]): Active
- Activity (RAW264.7 [19]): Non-Toxic
- inhibition at 1 µM (RAW264.7 [8]): 29.4%
- inhibition (RAW264.7 [20]): Dose-dependent effect
- inhibition (RAW264.7 [21]): Active
- Activity (RAW264.7 [22]): Non-Toxic
- inhibition at 1 µM (RAW264.7 [9]): 41%
